Results published in the supplement of paper PMC10307832.

Legend:
Experiment in all cases: relative viability (nuclei count vs DMSO), 5 days (fraction); higher = more cells survive
EPLC-272H = test system: EPLC-272H
Procedure, shortened: (§1)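 Relative viability equals treated-well nuclei counts divided by vehicle-well nuclei counts. Counts came from 4× images of lung cancer cell lines grown in 1536-well plates for 5 days after pin-tool dosing on the day after seeding. Dosing used one drug alone or a fixed anchor-drug dose plus five library-drug doses (not always all listed) in √10 steps, and values are medians of duplicate plates.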

NCI-H2085 = test system: NCI-H2085
Procedure, shortened: as §1

NCI-H1975 = test system: NCI-H1975
Procedure, shortened: as §1

LXF-289 = test system: LXF-289
Procedure, shortened: as §1

SW 900 = test system: SW 900
Procedure, shortened: as §1

HCC-827 = test system: HCC-827
Procedure, shortened: as §1

LK-2 = test system: LK-2
Procedure, shortened: as §1

HCC-78 = test system: HCC-78
Procedure, shortened: as §1

SK-LU-1 = test system: SK-LU-1
Procedure, shortened: as §1

NCI-H23 = test system: NCI-H23
Procedure, shortened: as §1

NCI-H2405 = test system: NCI-H2405
Procedure, shortened: as §1

NCI-H322M = test system: NCI-H322M
Procedure, shortened: as §1

LCLC-103H = test system: LCLC-103H
Procedure, shortened: as §1

EMC-BAC-2 = test system: EMC-BAC-2
Procedure, shortened: as §1

NCI-H2126 = test system: NCI-H2126
Procedure, shortened: as §1

LOU-NH91 = test system: LOU-NH91
Procedure, shortened: as §1

SW 1573 = test system: SW 1573
Procedure, shortened: as §1

RERF-LC-KJ = test system: RERF-LC-KJ
Procedure, shortened: as §1

NCI-H3122 = test system: NCI-H3122
Procedure, shortened: as §1

ChaGo-K-1 = test system: ChaGo-K-1
Procedure, shortened: as §1

LU99A = test system: LU99A
Procedure, shortened: as §1

NCI-H1666 = test system: NCI-H1666
Procedure, shortened: as §1

For NC(=O)Nc1cc(-c2cccc(F)c2)sc1C(=O)N[C@H]1CCCNC1 [AZD7762] + O=C(c1cc(Cc2n[nH]c(=O)c3ccccc23)ccc1F)N1CCN(C(=O)C2CC2)CC1 [Olaparib] (partner 8 µM), the relative viability (EPLC-272H; first compound 0.01 µM) was 1.08, the relative viability (EPLC-272H; first compound 0.03162 µM) was 0.707 and the relative viability (EPLC-272H; first compound 0.1 µM) was 0.586. The relative viability (EPLC-272H; first compound 0.3162 µM) was 0.219, the relative viability (EPLC-272H; first compound 1 µM) was 0.0768 and the relative viability (NCI-H2085; first compound 0.01 µM) was 0.872. For the same compound, the relative viability (NCI-H2085; first compound 0.03162 µM) was 0.86, the relative viability (NCI-H2085; first compound 0.1 µM) was 0.917 and the relative viability (NCI-H2085; first compound 0.3162 µM) was 0.88. It also gave a relative viability (NCI-H2085; first compound 1 µM) of 0.903, a relative viability (NCI-H1975; first compound 0.01 µM) of 0.767 and a relative viability (NCI-H1975; first compound 0.03162 µM) of 0.682. The relative viability (NCI-H1975; first compound 0.1 µM) was 0.638, the relative viability (NCI-H1975; first compound 0.3162 µM) was 0.538 and the relative viability (NCI-H1975; first compound 1 µM) was 0.401. For the same compound, the relative viability (LXF-289; first compound 0.01 µM) was 1.11, the relative viability (LXF-289; first compound 0.03162 µM) was 1.18 and the relative viability (LXF-289; first compound 0.1 µM) was 1.21. It also gave a relative viability (LXF-289; first compound 0.3162 µM) of 1.16, a relative viability (LXF-289; first compound 1 µM) of 1.28 and a relative viability (SW 900; first compound 0.01 µM) of 0.887. It also gave a relative viability (SW 900; first compound 0.03162 µM) of 0.835, a relative viability (SW 900; first compound 0.1 µM) of 0.727 and a relative viability (SW 900; first compound 0.3162 µM) of 0.949. It also gave a relative viability (SW 900; first compound 1 µM) of 0.47, a relative viability (HCC-827; first compound 0.01 µM) of 0.654 and a relative viability (HCC-827; first compound 0.03162 µM) of 0.678. It also gave a relative viability (HCC-827; first compound 0.1 µM) of 0.64, a relative viability (HCC-827; first compound 0.3162 µM) of 0.267 and a relative viability (HCC-827; first compound 1 µM) of 0.288. It also gave a relative viability (LK-2; first compound 0.01 µM) of 0.789, a relative viability (LK-2; first compound 0.03162 µM) of 1 and a relative viability (LK-2; first compound 0.1 µM) of 0.729. The relative viability (LK-2; first compound 0.3162 µM) was 0.623, the relative viability (LK-2; first compound 1 µM) was 0.435 and the relative viability (HCC-78; first compound 0.01 µM) was 0.86. It also gave a relative viability (HCC-78; first compound 0.03162 µM) of 1, a relative viability (HCC-78; first compound 0.1 µM) of 0.775 and a relative viability (HCC-78; first compound 0.3162 µM) of 0.85. The relative viability (HCC-78; first compound 1 µM) was 0.515, the relative viability (SK-LU-1; first compound 0.01 µM) was 0.477 and the relative viability (SK-LU-1; first compound 0.03162 µM) was 0.389. It also gave a relative viability (SK-LU-1; first compound 0.1 µM) of 0.306, a relative viability (SK-LU-1; first compound 0.3162 µM) of 0.244 and a relative viability (SK-LU-1; first compound 1 µM) of 0.186. For the same compound, the relative viability (NCI-H23; first compound 0.01 µM) was 0.311, the relative viability (NCI-H23; first compound 0.03162 µM) was 0.287 and the relative viability (NCI-H23; first compound 0.1 µM) was 0.255. It also gave a relative viability (NCI-H23; first compound 0.3162 µM) of 0.222, a relative viability (NCI-H23; first compound 1 µM) of 0.168 and a relative viability (NCI-H2405; first compound 0.01 µM) of 0.889. For the same compound, the relative viability (NCI-H2405; first compound 0.03162 µM) was 0.911, the relative viability (NCI-H2405; first compound 0.1 µM) was 0.837 and the relative viability (NCI-H2405; first compound 0.3162 µM) was 0.816. It also gave a relative viability (NCI-H2405; first compound 1 µM) of 0.294, a relative viability (NCI-H322M; first compound 0.01 µM) of 0.795 and a relative viability (NCI-H322M; first compound 0.03162 µM) of 0.933. It also gave a relative viability (NCI-H322M; first compound 0.1 µM) of 0.85, a relative viability (NCI-H322M; first compound 0.3162 µM) of 0.627 and a relative viability (NCI-H322M; first compound 1 µM) of 0.354. For the same compound, the relative viability (LCLC-103H; first compound 0.01 µM) was 0.827, the relative viability (LCLC-103H; first compound 0.03162 µM) was 0.705 and the relative viability (LCLC-103H; first compound 0.1 µM) was 0.733. It also gave a relative viability (LCLC-103H; first compound 0.3162 µM) of 0.772, a relative viability (LCLC-103H; first compound 1 µM) of 0.714 and a relative viability (EMC-BAC-2; first compound 0.01 µM) of 0.612. The relative viability (EMC-BAC-2; first compound 0.03162 µM) was 0.628, the relative viability (EMC-BAC-2; first compound 0.1 µM) was 0.626 and the relative viability (EMC-BAC-2; first compound 0.3162 µM) was 0.64. It also gave a relative viability (EMC-BAC-2; first compound 1 µM) of 0.547, a relative viability (NCI-H2126; first compound 0.01 µM) of 0.948 and a relative viability (NCI-H2126; first compound 0.03162 µM) of 0.982. The relative viability (NCI-H2126; first compound 0.1 µM) was 0.966, the relative viability (NCI-H2126; first compound 0.3162 µM) was 0.941 and the relative viability (NCI-H2126; first compound 1 µM) was 0.885. It also gave a relative viability (LOU-NH91; first compound 0.01 µM) of 0.915, a relative viability (LOU-NH91; first compound 0.03162 µM) of 0.914 and a relative viability (LOU-NH91; first compound 0.1 µM) of 0.867. For the same compound, the relative viability (LOU-NH91; first compound 0.3162 µM) was 0.834, the relative viability (LOU-NH91; first compound 1 µM) was 0.571 and the relative viability (SW 1573; first compound 0.01 µM) was 0.453. It also gave a relative viability (SW 1573; first compound 0.03162 µM) of 0.526, a relative viability (SW 1573; first compound 0.1 µM) of 0.403 and a relative viability (SW 1573; first compound 0.3162 µM) of 0.408. The relative viability (SW 1573; first compound 1 µM) was 0.221, the relative viability (RERF-LC-KJ; first compound 0.01 µM) was 0.928 and the relative viability (RERF-LC-KJ; first compound 0.03162 µM) was 0.922. For the same compound, the relative viability (RERF-LC-KJ; first compound 0.1 µM) was 1.01, the relative viability (RERF-LC-KJ; first compound 0.3162 µM) was 0.893 and the relative viability (RERF-LC-KJ; first compound 1 µM) was 0.65. The relative viability (NCI-H3122; first compound 0.01 µM) was 0.681, the relative viability (NCI-H3122; first compound 0.03162 µM) was 0.527 and the relative viability (NCI-H3122; first compound 0.1 µM) was 0.588. For the same compound, the relative viability (NCI-H3122; first compound 0.3162 µM) was 0.477, the relative viability (NCI-H3122; first compound 1 µM) was 0.404 and the relative viability (ChaGo-K-1; first compound 0.01 µM) was 0.394. The relative viability (ChaGo-K-1; first compound 0.03162 µM) was 0.425, the relative viability (ChaGo-K-1; first compound 0.1 µM) was 0.423 and the relative viability (ChaGo-K-1; first compound 0.3162 µM) was 0.415. The relative viability (ChaGo-K-1; first compound 1 µM) was 0.379, the relative viability (LU99A; first compound 0.01 µM) was 0.253 and the relative viability (LU99A; first compound 0.03162 µM) was 0.246. The relative viability (LU99A; first compound 0.1 µM) was 0.202, the relative viability (LU99A; first compound 0.3162 µM) was 0.148 and the relative viability (LU99A; first compound 1 µM) was 0.124. It also gave a relative viability (NCI-H1666; first compound 0.01 µM) of 0.85, a relative viability (NCI-H1666; first compound 0.03162 µM) of 0.973 and a relative viability (NCI-H1666; first compound 0.1 µM) of 1.06. The relative viability (NCI-H1666; first compound 0.3162 µM) was 0.968 and the relative viability (NCI-H1666; first compound 1 µM) was 0.814.
